In patent publication US20240327408A1, “COMPOUNDS CONTAINING TETRAHYDRONAPHTHYRIDINONE OR TETRAHYDROPYRIDOPYRIMIDINONE SKELETON, PREPARATION METHOD THEREFOR AND PHARMACEUTICAL USE THEREOF” (CHINA PHARMACEUTICAL UNIVERSITY, priority 2021, published 2024):

Legend:
MV4; 11 cells = experiment: inhibiting the growth of MV4; 11 cells; format: cell-based; conditions: Homo sapiens
hClpP = target: T1, hClpP (Homo sapiens, UniProt Q16740); experiment: activating ClpP hydrolysis of FITC-casein (fluorescence kinetic detection); format: biochemical; conditions: hClpP 1 μM, FITC-Casein 4 μM, 37° C.
T1 construct: made in house
T1 sequence (Q16740 57-277): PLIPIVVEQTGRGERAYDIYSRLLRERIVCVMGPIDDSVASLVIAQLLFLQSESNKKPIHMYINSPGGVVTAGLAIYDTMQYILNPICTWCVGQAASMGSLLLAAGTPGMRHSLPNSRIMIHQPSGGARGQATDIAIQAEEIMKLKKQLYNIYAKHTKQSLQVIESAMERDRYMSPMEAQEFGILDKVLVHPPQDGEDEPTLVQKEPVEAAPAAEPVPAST
Description: The specific procedures were as follows:
Test compounds were each prepared into a 100 mM stock solution in DMSO and stored. and 1 μL of stock solution of each of the compounds was taken and diluted to 10 mM by adding 9 μL of DMSO for later use.
The compounds of formula I of the present invention were each diluted at concentrations of 200 μM, 50 μM, 10 μM, 2 μM, 500 nM, 100 nM, 20 nM, and 2 nM in an assay buffer. 50 μL of each of the compounds at different concentrations was added to each well, with 2 replicate wells.
The protein was diluted to 4 μM in an assay buffer. 25 μL of protein was added to each well, and incubated at 37° C. for 30 min. The final concentration was 1 μM.
25 μL of FITC-Casein was added to each well. The final concentration was 4 μM. The mixture was immediately loaded on the machine for detection.
FITC-Casein and FITC-Casein+ClpP were used as negative controls.
The detection temperature was 37° C. The plate was shaken for 3 s. […] Kinetic parameters were set, and scanning was performed once every 1 min for 15 min.

SMILES	IC50 (MV4; 11 cells)	EC50 (hClpP)
O=c1c2c(c3cccnc3n1Cc1ccccc1)CCN(Cc1ccc(Cl)cc1)C2 [Compound I-19, 6-benzyl-3-(4-chlorobenzyl)-2,3,4,6-tetrahydropyrido[3,4-c][1,8]naphthyridine-5-(1H)-one]	< 1 µM	1 to 10 µM
COc1cccc(CN2CCc3c(c(=O)n(Cc4ccccc4)c4ncccc34)C2)c1 [Compound I-17, 6-benzyl-3-(3-methoxybenzyl)-2,3,4,6-tetrahydropyrido[3,4-c][1,8]naphthyridine-5-(1H)-one]	< 1 µM	1 to 10 µM
N#Cc1cccc(CN2CCc3c(c(=O)n(Cc4ccc(Cl)cc4)c4ncccc34)C2)c1 [Compound I-85, 6-(4-chlorobenzyl)-3-(3-cyanobenzyl)-2,3,4,6-tetrahydropyrido[3,4-c][1,8]naphthyridine-5-(1H)-one]	< 1 µM	< 1 µM
Cc1noc(C)c1Cn1c(=O)c2c(c3cccnc31)CCN(Cc1ccccc1)C2 [Compound I-68, 3-benzyl-6-((3,5-dimethylisoxazol-4-yl)methyl)-2,3,4,6-tetrahydropyrido[3,4-c][1,8]naphthyridine-5-(1H)-one]	1 to 10 µM	10 to 100 µM
O=c1c2c(c3cccnc3n1Cc1ccccc1)CCN(Cc1cc(Cl)ccn1)C2 [Compound I-30, 6-benzyl-3-((4-chloropyridin-2-yl)methyl)-2,3,4,6-tetrahydropyrido[3,4-c][1,8]naphthyridine-5-(1H)-one]	1 to 10 µM	10 to 100 µM
Cc1ccc(Cn2c(=O)c3c(n4ccnc24)CCN(Cc2cccc(C#N)c2)C3)cc1 [Compound I-136, 7-(3-cyanobenzyl)-4-(4-methylbenzyl)-6,7,8,9-tetrahydroimidazo[1,2-a]pyrido[3,4-e]pyrimidine-5(4H)-one]	< 1 µM	< 1 µM
Cc1cc(Cn2c(=O)c3c(c4cccnc42)CCN(Cc2ccccc2)C3)n(C)n1 [Compound I-60, 3-benzyl-6-((1,3-dimethyl-1H-pyrazol-5-yl)methyl)-2,3,4,6-tetrahydropyrido[3,4-c][1,8]naphthyridine-5-(1H)-one]	1 to 10 µM	10 to 100 µM
O=c1c2c(n3ncnc3n1Cc1ccc(Cl)cc1)CCN(Cc1cccc(F)c1)C2 [Compound I-153, 4-(4-chlorobenzyl)-7-(3-fluorobenzyl)-6,7,8,9-tetrahydropyrido[3,4-e][1,2,4]triazolo[1,5-a]pyrimidine-5(4H)-one]	1 to 10 µM	1 to 10 µM

The next lines start with the values.

IC50 (MV4; 11 cells)	EC50 (hClpP)	SMILES
< 1 µM	< 1 µM	N#Cc1cccc(CN2CCc3c(c(=O)n(Cc4ccc(F)cc4F)c4nccn34)C2)c1 [Compound I-126, 7-(3-cyanobenzyl)-4-(2,4-difluorobenzyl)-6,7,8,9-tetrahydroimidazo[1,2-a]pyrido[3,4-e]pyrimidine-5(4H)-one]
1 to 10 µM	1 to 10 µM	N#Cc1cccc(CN2CCc3c(c(=O)n(Cc4ccc([N+](=O)[O-])cc4)c4ncccc34)C2)c1 [Compound I-88, 6-(4-nitrobenzyl)-3-(3-cyanobenzyl)-2,3,4,6-tetrahydropyrido[3,4-c][1,8]naphthyridine-5-(1H)-one]
1 to 10 µM	1 to 10 µM	N#Cc1cccc(CN2CCc3c(c(=O)n(Cc4ccc(Cl)cc4)c4ccnn34)C2)c1 [Compound I-163, 4-(4-chlorobenzyl)-7-(3-cyanobenzyl)-6,7,8,9-tetrahydropyrazolo[1,5-a]pyrido[3,4-e]pyrimidine-5(4H)-one]
< 1 µM	< 1 µM	COc1ccc(Cn2c(=O)c3c(c4cccnc42)CCN(Cc2cccc(C#N)c2)C3)cc1 [Compound I-87, 6-(4-methoxybenzyl)-3-(3-cyanobenzyl)-2,3,4,6-tetrahydropyrido[3,4-c][1,8]naphthyridine-5-(1H)-one]
1 to 10 µM	10 to 100 µM	O=c1c2c(c3cccnc3n1Cc1ccccc1)CCN(Cc1ccccn1)C2 [Compound I-27, 6-benzyl-3-(pyridin-2-ylmethyl)-2,3,4,6-tetrahydropyrido[3,4-c][1,8]naphthyridine-5-(1H)-one]
